Results taken from patent US20100267561A1, “HERBICIDAL PYRIDAZINONE DERIVATIVES” (priority 2007, published 2010).

Tests used:
Assay type in all cases: in vivo
[1] = test system: giant foxtail (Setaria faberi); experiment: Test A pre-/postemergence plant response
Method in brief: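 Seeds were planted in blended loam soil and sand, then treated preemergence by directed soil spray. At that time, emerged plants (one- to two-leaf, 2–10 cm) received postemergence applications of the same surfactant-containing formulation. Injury was assessed visually on a 0–100 scale after approximately 10 days.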

[2] = test system: pigweed (Amaranthus retroflexus); experiment: Test B pre-/postemergence plant response; details: for Pigweed plant response rating: 8 g ai/ha
Method in brief: (§1)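 Seeds were sown and sprayed preemergence, while plants at 2 to 18 cm (1- to 4-leaf stage) got postemergence sprays. Compounds were formulated in a non-phytotoxic solvent mixture with surfactant. After 13 to 15 days in a greenhouse, injury was rated visually against untreated controls, 0 (no effect) to 100 (complete control).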

[3] = test system: velvetleaf (Abutilon theophrasti); experiment: Test B pre-/postemergence plant response; details: for Velvetleaf plant response rating: 8 g ai/ha
Method in brief: as §1

[4] = test system: goosegrass (Eleusine indica); experiment: Test B pre-/postemergence plant response; details: for Goosegrass plant response rating: 8 g ai/ha
Method in brief: as §1

[5] = test system: downy bromegrass (Bromus tectorum); experiment: Test B pre-/postemergence plant response; details: for Bromegrass, Downy plant response rating: 8 g ai/ha
Method in brief: as §1

soybean (Glycine max) = experiment: Test B pre-/postemergence plant response; details: for Soybean plant response rating: 8 g ai/ha
Method in brief: as §1

[6] = test system: bermudagrass (Cynodon dactylon); experiment: Test B pre-/postemergence plant response; details: for Bermudagrass plant response rating: 8 g ai/ha
Method in brief: as §1

[7] = test system: johnsongrass (Sorghum halepense); experiment: Test B pre-/postemergence plant response; details: for Johnsongrass plant response rating: 8 g ai/ha
Method in brief: as §1

[8] = test system: blackgrass (Alopecurus myosuroides); experiment: Test B pre-/postemergence plant response; details: for Blackgrass plant response rating: 8 g ai/ha
Method in brief: as §1

[9] = test system: wheat (Triticum aestivum); experiment: Test B pre-/postemergence plant response; details: for Wheat plant response rating: 8 g ai/ha
Method in brief: as §1

[10] = test system: giant foxtail (Setaria faberii); experiment: Test B pre-/postemergence plant response; details: for Foxtail, Giant plant response rating: 8 g ai/ha
Method in brief: as §1

[11] = test system: common (oilseed) sunflower (Helianthus annuus); experiment: Test B pre-/postemergence plant response; details: Preemergence
Method in brief: as §1

[12] = Postemergence, 16 g ai/ha, scale 0 to 100
[13] = Postemergence, 31 g ai/ha, scale 0 to 100, 0 no effect, 100 complete control
[14] = Postemergence, 62 g ai/ha, scale 0 to 100, 0 no effect, 100 complete control
[15] = Preemergence, 16 g ai/ha, scale 0 to 100 (0 no effect, 100 complete control)
[16] = Preemergence, 31 g ai/ha, 0 to 100 scale, 0 no effect, 100 complete control
[17] = Preemergence, 62 g ai/ha, scale 0 to 100

Compound: COC(=O)Oc1cnn(C)c(=O)c1-n1nc(-c2ccc(Cl)cc2)cc1C [Compound 33]
- Plant response rating, Foxtail, Giant ([1]; Postemergence, 31 g ai/ha, 0 to 100 scale (0 no effect, 100 complete control)): 90
- Plant response rating, Foxtail, Giant ([1]; Postemergence, 125 g ai/ha, 0 to 100 scale, 0 no effect, 100 complete control): 100
- Plant response rating, Foxtail, Giant ([1]; Preemergence, 31 g ai/ha, 0 to 100 scale, 0 is no effect, 100 is complete control): 100
- Plant response rating, Foxtail, Giant ([1]; Preemergence, 125 g ai/ha, 0 to 100 scale (0 no effect, 100 complete control)): 100
- Pigweed plant response rating ([2]; postemergence, 0-100 scale): 0
- Plant response rating, Pigweed [2, 12]: 0
- Plant response rating, Pigweed [2, 13]: 0
- Plant response rating, Pigweed [2, 14]: 0
- Plant response rating, Pigweed [2, 15]: 0
- Plant response rating, Pigweed [2, 16]: 0
- Plant response rating, Pigweed [2, 17]: 0
- Pigweed plant response rating ([2]; Preemergence, scale 0 to 100): 0
- Velvetleaf plant response rating ([3]; postemergence, 0-100 scale): 0
- Plant response rating, Velvetleaf [3, 12]: 0
- Plant response rating, Velvetleaf [3, 14]: 5
- Plant response rating, Velvetleaf [3, 15]: 0
- Plant response rating, Velvetleaf [3, 16]: 0
- Velvetleaf plant response rating ([3]; Preemergence, scale 0 to 100): 0
- Goosegrass plant response rating ([4]; postemergence, 0-100 scale): 50
- Plant response rating, Goosegrass [4, 12]: 70
- Plant response rating, Goosegrass [4, 13]: 90
- Plant response rating, Goosegrass [4, 14]: 100
- Plant response rating, Goosegrass [4, 15]: 98
- Plant response rating, Goosegrass [4, 16]: 98
- Plant response rating, Goosegrass [4, 17]: 98
- Goosegrass plant response rating ([4]; Preemergence, scale 0 to 100): 85
- Bromegrass, Downy plant response rating ([5]; postemergence, 0-100 scale): 5
- Plant response rating, Bromegrass, Downy [5, 12]: 50
- Plant response rating, Bromegrass, Downy [5, 13]: 70
- Plant response rating, Bromegrass, Downy [5, 14]: 80
- Plant response rating, Bromegrass, Downy [5, 15]: 0
- Plant response rating, Bromegrass, Downy [5, 16]: 80
- Plant response rating, Bromegrass, Downy [5, 17]: 100
- Bromegrass, Downy plant response rating ([5]; Preemergence, scale 0 to 100): 0
- Soybean plant response rating (soybean (Glycine max); postemergence, 0-100 scale): 0
- Plant response rating, Soybean (soybean (Glycine max); [12]): 0
- Plant response rating, Soybean (soybean (Glycine max); [14]): 0
- Plant response rating, Soybean (soybean (Glycine max); [15]): 0
- Plant response rating, Soybean (soybean (Glycine max); [16]): 0
- Plant response rating, Soybean (soybean (Glycine max); [17]): 0
- Soybean plant response rating (soybean (Glycine max); Preemergence, scale 0 to 100): 0
- Bermudagrass plant response rating ([6]; postemergence, 0-100 scale): 70
- Plant response rating, Bermudagrass [6, 12]: 100
- Plant response rating, Bermudagrass [6, 13]: 100
- Plant response rating, Bermudagrass [6, 14]: 100
- Bermudagrass plant response rating ([6]; Preemergence, scale 0 to 100 (0 no effect, 100 complete control)): 80
- Plant response rating, Bermudagrass [6, 15]: 98
- Plant response rating, Bermudagrass [6, 16]: 100
- Plant response rating, Bermudagrass [6, 17]: 100
- Johnsongrass plant response rating ([7]; postemergence, 0-100 scale): 70
- Plant response rating, Johnsongrass [7, 12]: 70
- Plant response rating, Johnsongrass [7, 13]: 85
- Plant response rating, Johnsongrass [7, 14]: 90
- Plant response rating, Johnsongrass [7, 15]: 95
- Plant response rating, Johnsongrass [7, 16]: 98
- Plant response rating, Johnsongrass [7, 17]: 100
- Johnsongrass plant response rating ([7]; Preemergence, scale 0 to 100): 60
- Blackgrass plant response rating ([8]; postemergence, 0-100 scale): 70
- Plant response rating, Blackgrass [8, 12]: 70
- Plant response rating, Blackgrass [8, 13]: 80
- Plant response rating, Blackgrass [8, 14]: 95
- Plant response rating, Blackgrass [8, 15]: 100
- Plant response rating, Blackgrass [8, 16]: 100
- Plant response rating, Blackgrass [8, 17]: 100
- Blackgrass plant response rating ([8]; Preemergence, scale 0 to 100): 60
- Wheat plant response rating ([9]; postemergence, 0-100 scale): 20
- Plant response rating, Wheat [9, 12]: 70
- Plant response rating, Wheat [9, 14]: 98
- Plant response rating, Wheat [9, 15]: 0
- Plant response rating, Wheat [9, 16]: 50
- Plant response rating, Wheat [9, 17]: 80
- Wheat plant response rating ([9]; Preemergence, scale 0 to 100): 0
- Foxtail, Giant plant response rating ([10]; postemergence, 0-100 scale): 100
- Plant response rating, Foxtail, Giant [10, 12]: 100
- Plant response rating, Foxtail, Giant [10, 13]: 100
- Plant response rating, Foxtail, Giant [10, 14]: 100
- Plant response rating, Foxtail, Giant [10, 15]: 100
- Plant response rating, Foxtail, Giant [10, 16]: 100
- Plant response rating, Foxtail, Giant [10, 17]: 100
- Foxtail, Giant plant response rating ([10]; Preemergence, scale 0 to 100): 100
- Plant response rating, Sunflower ([11]; 16 g ai/ha, scale 0 to 100 (0 no effect, 100 complete control)): 0
- Plant response rating, Sunflower ([11]; 31 g ai/ha, 0 to 100 scale, 0 no effect, 100 complete control): 0
- Plant response rating, Sunflower ([11]; 62 g ai/ha, scale 0 to 100): 0
- Sunflower plant response rating ([11]; 8 g ai/ha, scale 0 to 100): 0
